Measured values: publication PMC7717565, “Structure of the Lifeact–F-actin complex” (PLoS Biology, 2020)
Where no end group is shown, it is not given here.

Assays:
[1] = tested on: F-actin in yeast cells, WT actin; assay type: cell-based, Saccharomyces cerevisiae; settings: for weighted colocalization coefficient of phalloidin with Lifeact–mCherry: native ABP140 promoter, fixed cells, ActinGreen 488, Fig 2B, mean of 15 cells from 2 independent experiments
[2] = tested on: HEK 293T cells intoxicated with PTC3; assay: Intoxication competition assay with PTC3 in HEK 293T cells (cell area); assay type: cell-based, human; settings: 300 pM PTC3, 5 h, mCherry fusion expressed
F-actin [3] = molecular target: F-actin (Oryctolagus cuniculus, UniProt P68135); assay: Cosedimentation of Lifeact–mCherry with F-actin; assay type: binding, Rabbit (skeletal muscle α-actin); set-up: Bmax Value: unit not given here
[4] = tested on: F-actin-rich patch in yeast cells; assay type: cell-based, Saccharomyces cerevisiae; settings: Fig 3D
[5] = tested on: F-actin-rich patch in yeast cells; assay type: cell-based, Saccharomyces cerevisiae; settings: Fig 3E
[6] = tested on: human tropomyosin alpha-1 binding to F-actin; assay: Competition cosedimentation of F-actin with tropomyosin; settings: Lifeact 100 uM, F-actin 3 μM, tropomyosin 3 μM
Procedure: (§1) An aliquot of freshly thawed G-actin was centrifuged at 150,000 g using a TLA-55 rotor for 30 minutes at 4°C to remove possible aggregates. Then, actin was polymerized by incubation in F-buffer (120 mM KCl, 20 mM Tris pH 8, 2 mM MgCl2, 1 mM DTT, and 1 mM ATP) for 2 hours at room temperature or overnight at 4°C. For the cosedimentation experiments with myosin and tropomyosin, a 2-fold molar excess of phalloidin was added after the polymerization. Then, the actin filaments were pelleted using a TLA-55 rotor at 150,000 g for 30 minutes and resuspended in the following buffers: F-buffer was used for cosedimentations with tropomyosin or Lifeact–mCherry fusion proteins; 20 mM HEPES pH 6.5, 50 mM KCl, and 2 mM MgCl2 was used for cosedimentations with cofilin; and 120 mM KCl, 20 mM Tris pH 8, 2 mM MgCl2, and 1 mM DTT was used for cosedimentations with myosin.
(§2) For the competition assays, Lifeact peptide was added to the mixture at the specified concentrations. […] The Kd values were calculated as previously described using GraphPad Prism software (GraphPad Software, USA) [34].
(§3) Representative gels are shown. […] The error bars correspond to standard deviations of 3 independent experiments.

[7] = tested on: ExoY-MBP binding to F-actin; assay: Competition cosedimentation of F-actin with ExoY-MBP; set-up: species or system Pseudomonas aeruginosa ExoY; rabbit actin; settings: for fraction of ExoY cosedimented with F-actin: Lifeact 300 uM, F-actin 1 μM, ExoY-MBP 1 μM
TccC3HVR = assay: ADP-ribosylation of actin by TccC3HVR; assay type: biochemical, Photorhabdus luminescens; settings: for ADP-ribosylation level of actin (0 uM Lifeact = 1): Lifeact 100 uM, pH 8, 10 min 37°C
[8] = tested on: motor domain of human NM2C binding to F-actin; assay: Competition cosedimentation of F-actin with NM2C motor domain; settings: for fraction of myosin cosedimented with F-actin: Lifeact 100 uM, F-actin 0.2 μM, NM2C 0.2 μM, pH 8
Procedure: The motor domain of nonmuscular myosin-2C (MYH14, isoform 2 from Homo sapiens) consisting of amino acids 1–799 was purified as described previously [32]
Then, actin was polymerized by incubation in F-buffer (120 mM KCl, 20 mM Tris pH 8, 2 mM MgCl2, 1 mM DTT, and 1 mM ATP) for 2 hours at room temperature or overnight at 4°C. For the cosedimentation experiments with myosin and tropomyosin, a 2-fold molar excess of phalloidin was added after the polymerization. Then, the actin filaments were pelleted using a TLA-55 rotor at 150,000 g for 30 minutes and resuspended in the following buffers: F-buffer was used for cosedimentations with tropomyosin or Lifeact–mCherry fusion proteins; 20 mM HEPES pH 6.5, 50 mM KCl, and 2 mM MgCl2 was used for cosedimentations with cofilin; and 120 mM KCl, 20 mM Tris pH 8, 2 mM MgCl2, and 1 mM DTT was used for cosedimentations with myosin.
as §2
The error bars correspond to standard deviations of 3 independent experiments.

[9] = tested on: human cofilin-1 binding to F-actin; assay: Competition cosedimentation of F-actin with cofilin-1; settings: Lifeact 100 uM, F-actin 4 μM, cofilin-1 4 μM, pH 6.5
Procedure: as §1, §2, §3

F-actin [10] = settings: ref [5],[6]; cited from earlier work
Source text: Phalloidin and jasplakinolide are cyclic peptides derived from the death cap mushroom Amanita phalloides and marine sponge Jaspis johnstoni, respectively. They bind specifically to filamentous actin (F-actin), and when fused to a fluorescent probe, their derivatives allow visualization of the cell cytoskeleton by fluorescence microscopy. […] Recent electron cryo-microscopy (cryo-EM) studies from our group and others have uncovered h ...

[11] = tested on: F-actin in yeast cells, actin L349M; assay type: cell-based, Saccharomyces cerevisiae; settings: confocal microscopy, Fig 2C, endogenous actin replaced with L349M variant
[12] = tested on: F-actin in yeast cells, actin D25Y/D222G; assay type: cell-based, Saccharomyces cerevisiae; settings: confocal microscopy, Fig 2C, endogenous actin replaced with D25Y variant

E17K: Lifeact E17K variant fused to mCherry (MGVADLIKKFESISKEK; also: fused to mCherry, His tag, end not given here)
staining of actin-rich structures compared with WT ([1]; confocal microscopy, Fig 2A): stained actin-rich structures in a similar way as WT Lifeact | weighted colocalization coefficient of phalloidin with Lifeact–mCherry [1]: 0.8293 | effect on PTC3/TccC3HVR toxicity (cytoskeletal collapse, shrinkage) [2]: significantly reduced | Bmax Value (F-actin [3]; 3 μM Lifeact–mCherry, F-buffer pH 8, fit value, Std dev in next column): 0.9222 | Kd (F-actin [3]; 3 μM Lifeact–mCherry, F-buffer pH 8, full-precision fit value, Std dev in next column, unit as printed in Fig 3C): 8.08 µM | change of average Lifeact–mCherry to phalloidin signal ratio vs WT [4]: insignificant increase | change of average patch to background signal ratio vs WT [5]: insignificant increase

F10A Lifeact: Lifeact F10A mutant peptide, which only binds weakly to F-actin (MGVADLIKKAESISKEE)
fraction of tropomyosin cosedimented with F-actin ([6]; 1st repeat): 0.4801 | fraction of tropomyosin cosedimented with F-actin ([6]; 2nd repeat): 0.5601 | fraction of tropomyosin cosedimented with F-actin ([6]; 3rd repeat): 0.4901 | fraction of tropomyosin cosedimented with F-actin ([6]; mean of 3): 0.5101 | effect on ExoY binding to F-actin ([7]; Fig 5A, 5B): did not impair formation of the ExoY-F-actin complex | fraction of ExoY cosedimented with F-actin ([7]; 1st repeat): 0.8832 | fraction of ExoY cosedimented with F-actin ([7]; 2nd repeat): 0.8982 | fraction of ExoY cosedimented with F-actin ([7]; 3rd repeat): 0.9357 | fraction of ExoY cosedimented with F-actin ([7]; mean of 3): 0.9057 | effect on the level of ADP-ribosylation (TccC3HVR; 100 μM, control reaction): did not decrease the level of ADP-ribosylation at all | ADP-ribosylation level of actin (0 uM Lifeact = 1) (TccC3HVR; 1st repeat): 1.142 | ADP-ribosylation level of actin (0 uM Lifeact = 1) (TccC3HVR; 2nd repeat): 1.587 | ADP-ribosylation level of actin (0 uM Lifeact = 1) (TccC3HVR; 3rd repeat): 0.8227 | ADP-ribosylation level of actin (0 uM Lifeact = 1) (TccC3HVR; mean of 3): 1.184 | effect on myosin binding to F-actin ([8]; Fig 4B, 4C): nor could F10A Lifeact compete with cofilin-1 or NM2C | fraction of myosin cosedimented with F-actin ([8]; 1st repeat): 0.8484 | fraction of myosin cosedimented with F-actin ([8]; 2nd repeat): 0.9522 | fraction of myosin cosedimented with F-actin ([8]; 3rd repeat): 0.8926 | fraction of myosin cosedimented with F-actin ([8]; mean of 3): 0.8977 | binding to F-actin (F-actin [3]; in words, no value): only binds weakly to F-actin | fraction of cofilin cosedimented with F-actin ([9]; 1st repeat): 0.5246 | fraction of cofilin cosedimented with F-actin ([9]; 2nd repeat): 0.4576 | fraction of cofilin cosedimented with F-actin ([9]; 3rd repeat): 0.5496 | fraction of cofilin cosedimented with F-actin ([9]; mean of 3): 0.5106

Phalloidin
effect on F-actin (F-actin [10]): strongly stabilize F-actin

WT Lifeact–mCherry: wild-type Lifeact fused to mCherry [reference compound]
actin-rich structures (patches, cables, contractile rings) stained by Lifeact–mCherry ([1]; confocal microscopy, Fig 2A): typical actin-rich assemblies such as patches, cables, and contractile rings | weighted colocalization coefficient of phalloidin with Lifeact–mCherry [1]: 0.9009 | effect on PTC3/TccC3HVR toxicity (cytoskeletal collapse, shrinkage) [2]: significantly reduced | actin-rich structures stained by Lifeact–mCherry [11]: absent | factor of decrease of the level of ADP ribosylation (TccC3HVR; 3 μM): 2 | actin-rich structures stained by Lifeact–mCherry [12]: absent

jasplakinolide
effect on F-actin (F-actin [10]): strongly stabilize F-actin
